# Reference: paper PMC12525728, “Safety, Pharmacokinetics, Translational and Molecular Mechanistic Insights on the Prostate Cancer Recurrence Suppressor Pseurotin A” (Molecules, 2025)
# Assays:
# Swiss albino mice [1] = test system: Swiss albino mice; set-up: method as in PMID 36771126; conditions: cited from earlier work
# Swiss albino mice [2] = assay: 90-day daily oral dosing sub-chronic toxicity study (body weight, behavior, organ weight, histology); assay type: in vivo; conditions: for Relative organ weight, Brain / Relative organ weight, Heart / Relative organ weight, Kidneys / Relative organ weight, Liver / Relative organ weight, Lungs / Relative organ weight, Spleen: mean ± SD
# Method: For the 90-day daily oral dosing sub-chronic toxicity study, twenty male and twenty female healthy 8-week-old Swiss albino mice were randomly selected and randomized to […] (n = 5/sex/group). Mice received free access to purified drinking water and high-fat diet (HFD) pelleted rodent chow (11.4% total fat, no. 7004, Envigo/Teklad, Madison, WI, USA) until the day before sacrifice, at which time they were fasted for 8 h and allowed only free access to drinking water. Daily doses of PsA (10, 40, 80 mg/kg body weight) were administered to the mice formulated in <5% DMSO (Mediatech Inc., Manassas, VA, USA) and <0.2% Tween 80 (Croda Inc., Princeton, NJ, USA) at a volume not exceeding 1% of body weight by metal oral gavage (2 mm diameter with stainless steel bite protector, 18-gauge, 3.81 cm long). […] The mice were observed weekly until the completion of the study. The body weights of the mice were measured in grams using a Scout^TM Pro (Ohaus Corp., Pine Brook, NJ, USA) on day 0, 4, 8, 11, 14, 21, 28, 35, 42, 49, 56, 63, 70, 77, 83, and 90 after initial treatment. On day 90, all mice were anesthetized using isoflurane (USP-vaporizer method, Matrix VIP-3000, Covetrus, Dublin, OH, USA, exposure of animals in an anesthesia chamber at 3% isoflurane vaporization rate. Exposure time 2 min). Mice were then euthanized by cervical dislocation according to the 2020 AVMA Guidelines on Euthanasia and dissected. Mice organs (brain, liver, kidney, heart, lungs, spleen) were excised and weighed for histopathological examination. The organs were stored in 10% neutral buffered formalin (Avantor Science Central, Allentown, PA, USA) for 24 h and then transferred to 70% ethanol (AAPER ALCOHOL, Shelbyville, KY, USA). This study was performed following the OECD guideline 408 for the testing of chemicals.
# The experimental animals’ organs were carefully excised and quickly fixed in 10% neutral buffered formalin for 24 h before being transferred to 70% ethanol. The organs were embedded in paraffin before sectioning and staining with hematoxylin and eosin (H&E). All sectioning and staining were conducted at the AML Laboratories (Jacksonville, FL, USA). The paraffin-embedded tissues were sliced into 5 µm-thick sections before being mounted on a positively charged slide. The 5 µm-thick sections were then dewaxed using xylene, rinsed using 80–95% ethanol, and rehydrated using H2O. They were subsequently stained with H&E before being dehydrated again using 80–95% ethanol to xylene.
# Results for the hematological and biochemical parameters were analyzed separately by One-way Analysis of Variance (ANOVA), followed by multiple comparisons with Dunnett’s test. All statistical analyses were performed using GraphPad Prism version 8 software (San Diego, CA, USA). Data in this study were expressed as a mean ± SD (standard deviation) and mean ± SEM (standard error of mean). A probability value of <0.05 was considered statistically significant (* p < 0.05; ** p < 0.01; and *** p < 0.001).
# [3] = female, 10mg/kg daily oral 90 days
# [4] = female, 40mg/kg daily oral 90 days
# [5] = female, 80mg/kg daily oral 90 days
# [6] = male, 10mg/kg daily oral 90 days
# [7] = male, 40mg/kg daily oral 90 days
# [8] = male, 80mg/kg daily oral 90 days
smiles,measurement,setting,value
"CC/C=C\[C@H](O)[C@H](O)C1=C(C)C(=O)[C@]2(O1)C(=O)N[C@@](OC)(C(=O)c1ccccc1)[C@@H]2O [PsA, pseurotin A]",decrease in body weight,"Swiss albino mice [1]; 500 mg/kg female dosing group, oral gavage, after 14 days",45%
same,"major organ toxicity (liver, lung, heart, brain, kidneys)","Swiss albino mice [1]; 14-day acute toxicity, 10, 250 and 500 mg/kg oral gavage",neither major organ toxicity
same,LD50,"Swiss albino mice [1]; Up-and-Down acute toxicity procedure, oral, male and female Swiss albino mice",> 550 mg/kg
same,"behavioral, neuromuscular and autonomic responses",Swiss albino mice [2]; daily oral doses over 90 days,no observable effects
same,"Relative organ weight, Brain",Swiss albino mice [2]; [3],438.5 ± 18.9
same,"Relative organ weight, Heart",Swiss albino mice [2]; [3],197.7 ± 33.5
same,"Relative organ weight, Kidneys",Swiss albino mice [2]; [3],475.9 ± 31.8
same,"Relative organ weight, Liver",Swiss albino mice [2]; [3],1218 ± 31.6
same,"Relative organ weight, Lungs",Swiss albino mice [2]; [3],211.7 ± 40.2
same,"Relative organ weight, Spleen",Swiss albino mice [2]; [3],106.3 ± 48.4
same,"Relative organ weight, Brain",Swiss albino mice [2]; [4],355.1 ± 25.2
same,"Relative organ weight, Heart",Swiss albino mice [2]; [4],186.2 ± 12.3
same,"Relative organ weight, Kidneys",Swiss albino mice [2]; [4],470.4 ± 87.8
same,"Relative organ weight, Liver",Swiss albino mice [2]; [4],1311 ± 135.7
same,"Relative organ weight, Lungs",Swiss albino mice [2]; [4],229.0 ± 37.1
same,"Relative organ weight, Spleen",Swiss albino mice [2]; [4],125.1 ± 22.6
same,"Relative organ weight, Brain",Swiss albino mice [2]; [5],376.7 ± 47.4
same,"Relative organ weight, Heart",Swiss albino mice [2]; [5],231.1 ± 24.4
same,"Relative organ weight, Kidneys",Swiss albino mice [2]; [5],461.9 ± 20.6
same,"Relative organ weight, Liver",Swiss albino mice [2]; [5],1369 ± 146.3
same,"Relative organ weight, Lungs",Swiss albino mice [2]; [5],236.9 ± 66.2
same,"Relative organ weight, Spleen",Swiss albino mice [2]; [5],109.7 ± 20.2
same,average heart weight versus vehicle control,"Swiss albino mice [2]; male 10 mg/kg and 40 mg/kg groups, 90 days",significant decrease
same,body weight versus vehicle control,"Swiss albino mice [2]; male and female, 10, 40, 80 mg/kg daily oral 90 days, sixteen time points",did not show any significant changes
same,"Relative organ weight, Heart",Swiss albino mice [2]; [6],248.1 ± 54.6
same,"Relative organ weight, Kidneys",Swiss albino mice [2]; [6],684.7 ± 41.0
same,"Relative organ weight, Liver",Swiss albino mice [2]; [6],1881 ± 134.3
same,"Relative organ weight, Lungs",Swiss albino mice [2]; [6],288.8 ± 62.4
same,"Relative organ weight, Spleen",Swiss albino mice [2]; [6],114.7 ± 21.4
same,"Relative organ weight, Brain",Swiss albino mice [2]; [7],413.6 ± 54.5
same,"Relative organ weight, Heart",Swiss albino mice [2]; [7],261.7 ± 25.2
same,"Relative organ weight, Kidneys",Swiss albino mice [2]; [7],747.5 ± 92.3
same,"Relative organ weight, Liver",Swiss albino mice [2]; [7],1869 ± 295.8
same,"Relative organ weight, Lungs",Swiss albino mice [2]; [7],302.1 ± 23.5
same,"Relative organ weight, Spleen",Swiss albino mice [2]; [7],118.5 ± 3.9
same,"Relative organ weight, Brain",Swiss albino mice [2]; [8],409.2 ± 28.3
same,"Relative organ weight, Heart",Swiss albino mice [2]; [8],320.8 ± 58.9
same,"Relative organ weight, Kidneys",Swiss albino mice [2]; [8],673.7 ± 50.1
same,"Relative organ weight, Liver",Swiss albino mice [2]; [8],1946 ± 272.4
same,"Relative organ weight, Lungs",Swiss albino mice [2]; [8],209.9 ± 61.0
same,"Relative organ weight, Spleen",Swiss albino mice [2]; [8],108.7 ± 12.1
same,"organ histology (liver, lungs, kidneys, heart, brain) versus vehicle control","Swiss albino mice [2]; up to 80 mg/kg, 90-day dosing, H&E",no structural or morphological differences
